Where a name gives a salt, the structure may show the parent alone. Read-outs that look alike come from different tables or passages of the source.
How the values were obtained:
[1] = test system: HCT116 (colorectal carcinoma); assay: In vitro antiproliferation assay, HCT116 cells; assay type: cell-based; conditions: Homo sapiens, HCT-116; HCT116 (colorectal carcinoma) cell line
Description: (§1) Cis racemic Compound 15, (1S,2R) enantiomeric Compound 15a and […] enantiomeric Compound 15b were also tested against DU145 (prostate carcinoma), HCT116 (colorectal carcinoma) and MiaPaCa-2 (pancreatic carcinoma) cell lines.

[2] = test system: H1299 (non-small cell lung carcinoma); assay: In vitro antiproliferation assay, H1299 cells (TABLE 1 6 point assay; TABLE 2); assay type: cell-based
Description: (§2) Certain compounds were tested against other cell types for their ability to inhibit proliferation in standard antiproliferation assays.

A549 (lung carcinoma) = assay: In vitro antiproliferation assay, A549 cells (TABLE 1 6 point assay; TABLE 2); assay type: cell-based
Description: as §2

[3] = test system: MiaPaCa-2 (pancreatic carcinoma); assay: In vitro antiproliferation assay, MiaPaCa-2 cells; assay type: cell-based
Description: as §1, §2

[4] = test system: DU145 (prostate carcinoma); assay: In vitro antiproliferation assay, DU145 cells; assay type: cell-based
Description: as §1, §2

[5] = test system: L1210 (mouse lymphocytic leukemia); assay: In vitro antiproliferation assay, L1210 cells; assay type: cell-based
Description: as §2

[6] = test system: MOLT4 (T lymphoblast acute lymphoblastic leukemia); assay: In vitro antiproliferation assay, MOLT4 cells; assay type: cell-based
Description: as §2

[7] = test system: COLO 205 (colorectal adenocarcinoma); assay: In vitro antiproliferation assay, COLO 205 cells; assay type: cell-based; conditions: Colo205
Description: as §2

[8] = test system: H1155 (non-small cell lung carcinoma); assay: In vitro antiproliferation assay, H1155 cells; assay type: cell-based; conditions: H1155
Description: as §2

[9] = test system: MOLT3 (T lymphoblast acute lymphoblastic leukemia); assay: In vitro antiproliferation assay, MOLT3 cells; assay type: cell-based
Description: as §2

[10] = test system: HL160 (promyeloblast promyelocytic leukemia); assay: In vitro antiproliferation assay, HL160 cells; assay type: cell-based
Description: as §2

U2OS (bone osteosarcoma) = assay: In vitro antiproliferation assay, U2OS cells; assay type: cell-based; conditions: U20S
Description: as §2

[11] = test system: K562 (bone marrow chronic myelogenous leukemia); assay: In vitro antiproliferation assay, K562 cells; assay type: cell-based
Description: as §2

H7299 = assay: In vitro antiproliferation assay, H7299 cells; assay type: cell-based
Description: as §2

[12] = test system: PC3 (prostate adenocarcinoma); assay: In vitro antiproliferation assay, PC3 cells; assay type: cell-based
Description: as §2

[13] = test system: THP-1 (monocyte acute monocytic leukemia); assay: In vitro antiproliferation assay, THP-1 cells; assay type: cell-based
Description: as §2

[14] = test system: ASPC-1 (pancreatic adenocarcinoma); assay: In vitro antiproliferation assay, ASPC-1 cells; assay type: cell-based; conditions: ASPC1
Description: as §2

[15] = test system: HELA (cervical adenocarcinoma); assay: In vitro antiproliferation assay, HELA cells; assay type: cell-based
Description: as §2

[16] = test system: SW620 (colorectal adenocarcinoma); assay: In vitro antiproliferation assay, SW620 cells; assay type: cell-based
Description: as §2

[17] = test system: U937 (histiocytic lymphoma); assay: In vitro antiproliferation assay, U937 cells; assay type: cell-based; conditions: Homo sapiens, U-937
Description: as §2

Aurora kinase-B = target: T1, Aurora kinase-B (Homo sapiens, UniProt Q96GD4); assay: Functional cellular assay of Aurora kinase-B: phosphorylation of histone H3 in A549 cells; assay type: cell-based; conditions: A549 cells, phospho-histone H3; read-out: IC50 of Aurora kinase-B inhibition
T1 construct: endogenous in cells; host or cells: A549 cells
Description: Enantiomers E1 and E2 (Compounds 60a and 60b, respectively) were tested for their ability to inhibit Aurora kinase-B in a functional cellular assay involving phosphorylation of its substrate, histone H3. For the assay, A549 cells were seeded into the wells of a microtiter tray (5000 cells/well in 100 μl F12K media) late in the afternoon on Day 1. The cells were grown overnight (37° C., 5% CO2) On Day 2, 50 μl nocodazole (1 μM in media) was added to each well, giving a final concentration of 333 nM. Cells were grown for an additional 18 hrs under the same conditions.
On Day 3, 50 μl aliguots of varying concentrations of test compound were added to the wells Test compounds were prepared by 2-fold serial dilution of a […] stock (in DMSO). The diluted compounds in DMSO were then further diluted 1:50 with media to yield a final solution containing 4× test compound, 98% media, 2% DMSO. After incubation, the media/test compound was washed and the cells fixed with 2% paraformaldehyde (in Dulbecco's phosphate buffered saline “DPBS”; 25 μl per well; […] incubation). […] The cells were then stained with a secondary antibody labeled with a fluorescent dye (secondary antibody donkey anti-mouse AlexFluor 488 (Invitrogen Molecular Probes; 1:2000) and DAPI (1:15,000 of 1 mg/ml stock) for 1 hr at room temperature, washed three times with DPBS (200 μl/well) and stored under DPBS (100 μl/well) at 4° C. until ready for analysis.
A Zeiss Axiovert S100 inverted fluorescent microscope with a Plan-NEOFLUAR 10× objective, a Hamamatsu Lightningcure 200 Mercury-Xenon light source and an Omega Optical XF57 quad filter was used for all data collection. […] Images were captured and analyzed in 12-bit format using segmentation and morphological routines contained in the Image Pro software package. Identified nuclei were counted and pixel data for each cell along with experimental conditions was stored in a database using MySQL 4.0.14. […]
For phospho-histone H3 analysis the data is converted to Facs files and analysed using FlowJo. […]

[18] = test system: H460 (large cell lung carcinoma); assay: In vitro antiproliferation assay, H460 cells; assay type: cell-based; conditions: Homo sapiens, NCI-H460
Description: as §2

A549 tumors = assay: Xenograft treatment model, A549 tumors; assay type: in vivo, SCID mice; conditions: 5 days on/2 days off, 10 mg/kg qd, p>0.05
Description: (§3) When palpable tumors appeared and were of a preselected volume (approx. 100 mm3 for treatment model; >300 mm3 for regression model), the mice were administered test compounds in the amounts and according to the dosing regimens specified in TABLE 3 (treatment protocol) and TABLE 4 (regression protocol), below.

Colo205 tumors [19] = assay: Xenograft treatment model, Colo205 tumors; assay type: in vivo, SCID mice; conditions: daily and pulsed dosing regimens, all dosage levels tested
Description: as §3

MiaPaCa tumors = assay: Xenograft regression model, MiaPaCa tumors; assay type: in vivo, SCID mice; conditions: 10 mg/kg/day oral or i.p., similar to taxol
Description: as §3

Colo205 tumors [20] = assay: Xenograft regression model, Colo205 tumors; assay type: in vivo, SCID mice; conditions: 10 mg/kg/day oral
Description: as §3

[21] = Homo sapiens, NCI-H1299, 6 point assay, H1299 cells, read-out: IC50, H1299 cells
[22] = Homo sapiens, A549, 6 point assay, A549 cells, read-out: IC50, A549 cells
[23] = Homo sapiens, MIA PaCa-2, MiaPaCa-2 (pancreatic carcinoma) cell line, read-out: IC50
[24] = Homo sapiens, DU-145, DU145 (prostate carcinoma) cell line, read-out: IC50
[25] = Homo sapiens, MIA PaCa-2, Miapaca2, read-out: In Vitro IC50
[26] = Homo sapiens, DU-145, DU145, read-out: In Vitro IC50
[27] = Homo sapiens, NCI-H1299, H1299, read-out: In Vitro IC50
[28] = Homo sapiens, A549, A549, read-out: In Vitro IC50

T1 sequence (Q96GD4 whole entry): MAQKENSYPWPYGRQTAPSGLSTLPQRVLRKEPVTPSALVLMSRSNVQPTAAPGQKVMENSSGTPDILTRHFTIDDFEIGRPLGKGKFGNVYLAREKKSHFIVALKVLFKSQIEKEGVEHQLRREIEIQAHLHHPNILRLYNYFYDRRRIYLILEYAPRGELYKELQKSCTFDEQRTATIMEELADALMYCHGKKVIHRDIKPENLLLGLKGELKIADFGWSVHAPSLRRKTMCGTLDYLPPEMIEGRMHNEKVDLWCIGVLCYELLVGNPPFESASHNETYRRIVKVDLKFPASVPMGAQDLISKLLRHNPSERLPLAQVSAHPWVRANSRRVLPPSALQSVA

Cc1cc(Nc2ncc(F)c(NC3CCCC3C(N)=O)n2)ccc1N1CCN(C)CC1 (racemic) [Compound 15, Racemic-cis-N4-(2-Aminocarbonylcyclopent-1-yl)-5-fluoro-N2-[4-(4-methylpiperazin-1-yl)-3-methylphenyl]-2,4-pyrimidinediamine]
IC50 [1]: < 1000 nM | IC50 [2, 21]: 100 to 1000 nM | IC50 (A549 (lung carcinoma); [22]): 100 to 1000 nM | IC50 [3, 23]: < 1000 nM | IC50 [4, 24]: < 1000 nM

Cc1cc(Nc2ncc(F)c(NC3C4C=CC(C4)C3C(N)=O)n2)ccc1N1CCN(C)CC1 (racemic) [Compound 60, 2-exo-3-exo racemic N4-(3-aminocarbonylbicyclo[2.2.1]hept-5-ene-2-yl)-5-fluoro-N2-[3-methyl-4-(4-methylpiperazin-1-yl)phenyl]-2,4-pyrimidinediamine]
IC50 [5]: ≤ 1000 nM | IC50 [6]: ≤ 10 nM | IC50 [7]: ≤ 10 nM | IC50 [8]: ≤ 10 nM | IC50 [9]: ≤ 10 nM | IC50 [10]: ≤ 10 nM | IC50 (U2OS (bone osteosarcoma)): ≤ 20 nM | IC50 [11]: ≤ 1000 nM | IC50 (H7299): ≤ 20 nM | IC50 [12]: ≤ 20 nM | IC50 [13]: ≤ 1000 nM | IC50 (A549 (lung carcinoma); A549, read-out: In Vitro IC50): ≤ 20 nM | IC50 ([3]; Miapaca2, read-out: In Vitro IC50): ≤ 10 nM | IC50 [14]: ≤ 20 nM | IC50 ([4]; DU145, read-out: In Vitro IC50): ≤ 20 nM | IC50 ([15]; HELA): ≤ 10 nM | IC50 [16]: ≤ 1000 nM

Cc1cc(Nc2ncc(F)c(NC3C4C=CC(C4)C3C(N)=O)n2)ccc1N1CCN(C)CC1 (racemic) [compound 221, Racemic-(2-exo, 3-exo)-N4-(3-aminocarbonylbicyclo[2.2.1]hept-5-en-2-yl)-5-fluoro-N2-[3-methyl-4-(4-methylpiparazin-1-yl)phenyl]-2,4-pyrimidinediamine]
IC50 [17]: ≤ 10 nM | IC50 ([5]; Mus musculus): ≤ 1000 nM | IC50 ([6]; Homo sapiens, MOLT-4): ≤ 10 nM | IC50 ([7]; Homo sapiens, COLO 205): ≤ 10 nM | IC50 ([9]; Homo sapiens, MOLT-3): ≤ 10 nM | IC50 ([2]; H1299, read-out: In Vitro IC50): ≤ 20 nM | IC50 [2, 21]: ≤ 100 nM | IC50 [10]: ≤ 10 nM | IC50 (U2OS (bone osteosarcoma); Homo sapiens, U2OS): ≤ 20 nM | IC50 ([11]; Homo sapiens): ≤ 1000 nM | IC50 ([13]; Homo sapiens): ≤ 20 nM | IC50 (A549 (lung carcinoma); A549, read-out: In Vitro IC50): ≤ 10 nM | IC50 (A549 (lung carcinoma); [22]): ≤ 100 nM | IC50 [3, 25]: ≤ 10 nM | IC50 ([14]; Homo sapiens): ≤ 20 nM | IC50 [4, 26]: ≤ 10 nM | IC50 ([15]; Homo sapiens, HeLa): ≤ 10 nM | IC50 ([16]; Homo sapiens, SW-620): ≤ 20 nM

Cc1cc(Nc2ncc(F)c(N[C@@H]3CCC[C@@H]3C(N)=O)n2)ccc1N1CCN(C)CC1 (stereo in doubt) [Compound 15b, (1R,2S)—N4-(2-Aminocarbonylcyclopent-1-yl)-5-fluoro-N2-[4-(4-methylpiperazin-1-yl)-3-methylphenyl]-2,4-pyrimidinediamine]
IC50 [1]: < 5000 nM | IC50 [2, 21]: 1000 to 10000 nM | IC50 (A549 (lung carcinoma); [22]): 1000 to 10000 nM | IC50 [3, 23]: < 5000 nM | IC50 [4, 24]: < 5000 nM

Cc1cc(Nc2ncc(F)c(NC3C(C(N)=O)[C@H]4C=C[C@@H]3C4)n2)ccc1N1CCN(C)CC1 (stereo in doubt) [Compound 60b, (1S,2R,3S,4R)—N4-(3-Aminocarbonylbicyclo[2.2.1]hept-5-en-2-yl)-5-fluoro-N2-[3-methyl-4-(4-methylpiperazin-1-yl)phenyl]-2,4-pyrimidinediamine]
IC50 [17]: > 1000 nM | IC50 ([5]; Mus musculus): > 1000 nM | IC50 (Aurora kinase-B): 2490 nM | IC50 ([6]; Homo sapiens, MOLT-4): > 1000 nM | IC50 ([7]; Homo sapiens, COLO 205): > 1000 nM | IC50 ([9]; Homo sapiens, MOLT-3): > 1000 nM | IC50 [2, 21]: 1000 to 10000 nM | IC50 [2, 27]: > 1000 nM | IC50 [10]: > 1000 nM | IC50 (U2OS (bone osteosarcoma); Homo sapiens, U2OS): ≤ 1000 nM | IC50 ([11]; Homo sapiens): > 1000 nM | IC50 (H7299): > 1000 nM | IC50 ([12]; Homo sapiens, PC-3): > 1000 nM | IC50 ([13]; Homo sapiens): ≤ 1000 nM | IC50 (A549 (lung carcinoma); [22]): 1000 to 10000 nM | IC50 (A549 (lung carcinoma); [28]): > 1000 nM | IC50 [3, 25]: > 1000 nM | IC50 [4, 26]: ≤ 1000 nM | IC50 ([15]; Homo sapiens, HeLa): > 1000 nM | IC50 ([16]; Homo sapiens, SW-620): > 1000 nM

Cc1cc(Nc2ncc(F)c(N[C@H]3[C@@H](C(N)=O)[C@@H]4C=C[C@H]3C4)n2)ccc1N1CCN(C)CC1 [compound 234, (1R,2R,3S,4S)—N4-(3-Aminocarbonylbicyclo[2.2.1]hept-5-en-2-yl)-5-fluoro-N2-[3-methyl-4-(4-methylpiperazin-1-yl)phenyl]-2,4-pyrimidinediamine Hydrogen Chloride Salt]
IC50 [18]: ≤ 10 nM | Reduction in mean tumor volume (A549 tumors): ~40% | IC50 ([7]; Homo sapiens, COLO 205): ≤ 10 nM | IC50 [2, 21]: 100 to 1000 nM | IC50 [2, 27]: ≤ 1000 nM | IC50 (H7299): ≤ 1000 nM | Reduction in tumor growth rate as compared to a vehicle control (Colo205 tumors [19]): significant (p<0.050) reductions in tumor growth rate | IC50 (A549 (lung carcinoma); [22]): ≤ 100 nM | IC50 (A549 (lung carcinoma); [28]): ≤ 10 nM | IC50 [3, 25]: ≤ 10 nM | Reduction in tumor growth rate (MiaPaCa tumors): Significant reductions in tumor growth rate | IC50 [4, 26]: ≤ 1000 nM | Reduction in tumor growth rate (Colo205 tumors [20]): Significant reductions in tumor growth rate | IC50 ([15]; Homo sapiens, HeLa): ≤ 10 nM
